The values that follow come from patent publication US8389501B2, “Anticancer compound” (priority 2011, dated 2013).

For orientation: IC50 means the concentration that gives 50% inhibition. Usually GI50 stands for the concentration giving 50% growth inhibition. A lower GI50 goes with greater sensitivity of the cells. In general, TGI refers to the concentration giving total growth inhibition. A high value points to lower sensitivity of the cells.

Structures are written as SMILES. Like-named read-outs stand apart in the source and are kept apart here.

One assay concerns IL-2 production. Nature of the assay: IL-2 cytokine production by PHA activated peripheral blood mononuclear cells (ELISA). The assay is classed as cell-based, human. Here is the method:
(§1) FIG. 2: Effect of Compounds 1-3 on phytohemagglutinin (PHA) T-cell proliferation and production. (2A) The bar graph represents effects of various concentrations of the test Compounds 1-3 after 72 h incubation with peripheral blood mononuclear cells at 37° C. Effect of compounds on T-cell proliferation response is compared with non-proliferated […] cells. The bar graph (2B) represents effects of various concentrations of the test Compounds 1-3 on production of IL-2 compared with (+ve) and without (−ve) PHA induced IL-2 production. Each bar represents the mean value of triplicate reading±SD.
IL-2 cytokine was produce from peripheral blood mononuclear cells (PBMC). IL-2 cytokine production by PHA activated cells in the presence or absence of test compounds was studied by ELISA using the human cytokine kit (Diaclone, Besancon Cedex France). Briefly, freshly prepared mononuclear cells (10^5/well) were cultured in 96-well microtiter flat bottom plate in the presence or absence of 5 μg/mL PHA. Four different concentrations (10.33-331.13 μM/mL) of compounds, along with PHA, were used in this assay. The culture plate was incubated at 37° C. for 18 h. Then the supernatant was collected and analyzed for IL-2 cytokine production following kit manufacturer instructions.
A general note: ELISA stands for enzyme-linked immunosorbent assay.

Assay [1] deals with PHA-activated T-cell proliferation. Nature of the assay: PHA-activated T-cell proliferation assay (3H-thymidine incorporation). The format is cell-based, human. As to conditions: for IC50: Homo sapiens, T-cell, PHA 5 μg/mL, 72 hours incubation; for effect on T-cell proliferation (in words): PHA-activated. Here is the method: as §1
The T-cell proliferation assay was performed as described by Nielson et al. (19). In this assay, isolated lymphocytes were stimulated by adding the phytohemagglutinin (PHA) in culture. The rate of proliferation and survival was measured by radiolabelled thymidine incorporation method. The lymphocytes were isolated as described by Boyum (20). A 50 μL of cell suspension (10^6/mL) was added to each well of a 96-well round bottom tissue culture plate. 50 μL of PHA was added in each well from the working solution (20 μg/mL) to have final concentration 5 μg/mL. The final volume was adjusted to 200 μL in each well by adding complete RPMI media. The plates were incubated at 37° C. for 72 hours (90% humidity, 5% CO2/air). Methyl-^3H thymidine (Amersham Pharmacia Biotech) 0.5 μCi was added in each well and incubated for further 18 hours. Cells were harvested on a filter mat (Type G-7) using cell harvester (INOTECH IH-280, Switzerland) and the radioactivity (CPM) was measured using a β-scintillation counter (LS 6500, Beckman Coulter, USA). (FIG. 2A)
On the technique in general: Incorporation of labelled thymidine or its analogues reports DNA synthesis.

The test system of another assay is whole blood phagocytes. Briefly: Oxidative burst, luminol-enhanced chemiluminescence, whole blood. The format is cell-based, human. As to conditions: for IC50: Homo sapiens, diluted whole blood, opsonized zymosan-A, luminol. The procedure: (§2) In addition to that, effects of these compounds on T-cells proliferation were also evaluated; investigating their (Compounds 2 and 3) ability to modulate PHA activated T-cell proliferation response and production of IL-2 cytokine.
(§3) Heparinized blood was obtained by vein puncture aseptically from healthy volunteers (25-38 years age). The buffy coat containing PMNs was collected by dextran sedimentation and the cells were isolated after the LSM density gradient centrifugation from the tube base. Cells were washed twice and suspended in Hank's Balance Salt Solution (Ca^2+ and Mg^2+ free) (HBSS^−−), pH 7.4. Neutrophils were purified from RBCs contamination using hypotonic solution. Cells were adjusted to their required concentration using Hank's Balance Salt Solution containing Ca^2+ and Mg^2+ (HBSS^++).
(§4) Luminol-enhanced chemiluminescence assay was performed as described by Helfand et al. (17), and Haklar et al. (18) with some modifications. Briefly, 25 μL diluted whole blood (1:200 dilution in sterile HBSS^++) or 25 μL of PMNs (1×10^6) cells were incubated with 25 μL of serially diluted compounds with concentration ranges between 3.2-50 mg/mL. Tests were performed in white 96-well plates, which were incubated at 37° C. for […] in the thermostated chamber of the luminometer. Opsonized zymosan-A, 25 μL, followed by 25 μL luminol (7×10^−5 M) along with HBSS^++ was added to each well to obtain a 100 μL volume/well. Wells received HBSS^++, and cells but no compounds were used as a negative control. Chemiluminescence peaks were recorded with the Luminometer. Results were monitored as chemiluminescence relative light units (RLU) with peak and total integral values.

Assay [2] has as its system isolated polymorphoneutrophils (PMNs). Nature of the assay: Oxidative burst, luminol-enhanced chemiluminescence, isolated PMNs. The assay is classed as cell-based, human. The note with it: for IC50: Homo sapiens, isolated PMNs, opsonized zymosan-A, luminol. Here is the method: as §2, §3, §4
Assay [3] deals with human lung cancer cell line (NCI-H460). Briefly: Sulforhodamine B (SRB) growth inhibition assay. The format is cell-based. As to conditions: for GI50: Homo sapiens. The procedure: The sulforhodamine B (SRB) protein-staining assay was employed for measurement of in vitro growth inhibition and cytotoxicity (21) The appropriate cell density (cells/well) of NCI-H460 cells (1×10^4) was added in 96-well plates. The cell density used was dependent on the doubling time of the cell line leading to the formation of monolayer. After 24 h incubation, different doses of Compounds 1-3 were added and incubated for further 48 h. This was followed by fixation of cells with ice-cold trichloroacetic acid (50 μl, 50%) at room temperature for 30 min. The plates were carefully washed five times with distilled water, and left for overnight drying in air. Sulforhodamine B dye (100 μl, 0.4% in 1% acetic acid) was introduced in each well and after 30 min residual dye was removed using acetic acid (1%) and air-dried overnight. The bound SRB dye was solubilized in Tris-base solution (100 μl, 10 mM) with gentle shaking on a plate-shaker for 5 min prior to optical density (OD) measurements at 545 nm in a plate reader. Drug concentrations causing growth inhibition (GI50) of 50% cells were calculated from dose response curves and total growth inhibition of Compound 2 was also evaluated.

Setting [4] is: Homo sapiens, PBMC, 18 h, PHA-activated PBMC, 18 h, ELISA, read-out: IC50 (μM) IL-2.

Regarding `C[C@]12C=CC(=O)C=C1CC[C@@H]1[C@@H]2CC[C@@]2(C)[C@H]1CC[C@]2(C)O` [Compound 1, dianabol, reference compound], the concentration for half-maximal inhibition (IC50) in the assay with IL-2 production (setting [4]) is greater than 167 µM; in assay [1], greater than 167 µM; in the assay on whole blood phagocytes it was greater than 333 µM; in assay [2], greater than 167 µM. Besides, the “effect on IL-2 production (in words)” value with IL-2 production (PHA-activated PBMC) is “did not show any significant effect”. Besides, the “effect on T-cell proliferation (in words)” value in assay [1] is given as “did not show any significant effect”. Also, the “anticancer activity against NCI-H460 cell line (in words)” value (“anticancer activity” below) in assay [3] is recorded as “showed anticancer activity”. Moreover, growth in assay [3] (NCI-H460, 48 h, SRB) was halved (GI50) at 28.3 ± 2.72 µM. In addition, the “TGI (μM)” value in assay [3] (NCI-H460, 48 h, SRB) is recorded as “ND (ND: Values could not be determined indicates <50% inhibition of cell growth at maximum dose (100 μM) tested.)”.
As for `C[C@]12C=CC(=O)C[C@@H]1CC[C@@H]1[C@@H]2CC[C@@]2(C)[C@H]1CC[C@]2(C)O` [Compound 2, 17β-hydroxy-17α-methyl-5α-androst-1-en-3-one], the IC50 is 16.9 ± 1.32 µM in the assay on IL-2 production (setting [4]); 16.9 ± 1.32 µM in the assay on IL-2 production (Homo sapiens, PBMC, FIG. 2, read-out: IL-2 production IC50 (unit inferred)); less than 10.3 µM in assay [1]; greater than 331 µM in the assay on whole blood phagocytes; greater than 166 µM in assay [2]. Further, the “effect on reactive oxygen species (ROS) production, whole blood phagocytes (in words)” value in the assay on whole blood phagocytes is listed as “did not result in any significant effect”. The “effect on reactive oxygen species (ROS) production, isolated neutrophils (in words)” value in assay [2] is given as “did not result in any significant effect”. For the same compound, the “anticancer activity” value in assay [3] is reported as “showed anticancer activity”. Growth in assay [3] (NCI-H460, 48 h, SRB) was halved (GI50) at 22.5 ± 4.15 µM. Further, the total growth inhibition concentration (TGI) in assay [3] (NCI-H460, 48 h, SRB) was 60 ± 9.2 µM.
`C[C@]12CCC(=O)C[C@@H]1CC[C@@H]1[C@@H]2CC[C@@]2(C)[C@H]1CC[C@]2(C)O` [Compound 3, 17β-hydroxy-17α-methyl-5α-androstan-3-one]: in the assay with IL-2 production (setting [4]), the half-inhibitory concentration (IC50) is 49.3 ± 1.32 µM. The “effect on IL-2 production (in words)” value with IL-2 production (PHA-activated PBMC) is reported as “moderate inhibitory activity”. The half-maximal inhibitory concentration (IC50) in the assay on IL-2 production (PHA-activated PBMC, 18 h, ELISA, read-out: IC50 (μM) IL-2) was found to be 49.3 ± 1.32 µM. Also, in assay [1], the IC50 stood at 42.1 µM and the “effect on T-cell proliferation (in words)” value is on record as “moderate inhibitory activity”. Also, in the assay with whole blood phagocytes, the “effect on reactive oxygen species (ROS) production, whole blood phagocytes (in words)” value was “did not result in any significant effect” and the IC50 was greater than 329 µM. In addition, in assay [2], the “effect on reactive oxygen species (ROS) production, isolated neutrophils (in words)” value is given as “did not result in any significant effect” and the half-inhibitory concentration (IC50) is greater than 164 µM. In addition, the “anticancer activity” value in assay [3] is on record as “non-active”. Also, in assay [3] (NCI-H460, 48 h, SRB), the 50% growth inhibitory concentration (GI50) was greater than 100 µM and the “TGI (μM)” value is reported as “ND (ND: Values could not be determined indicates <50% inhibition of cell growth at maximum dose (100 μM) tested.)”. Besides, in assay [3] (NCI-H460, 100 μM), the “growth inhibition of cancer cells at 100 μM (in words)” value is listed as “not able to inhibit considerable growth of cancer cells”.
Compound `COc1cccc2c1C(=O)c1c(O)c3c(c(O)c1C2=O)C[C@@](O)(C(=O)CO)C[C@@H]3O[C@H]1C[C@H](N)[C@H](O)[C@H](C)O1` [doxorubicin, reference compound] gave a concentration for 50% growth inhibition (GI50) in assay [3] (NCI-H460, 48 h, SRB) of 0.08 ± 0.02 µM.
